Like-named read-outs stand apart in the source and are kept apart here. Values belong to the molecule of their own block, whether it stands above or below them.
How the values were obtained:
[1] = molecular target: T1, p97 WT (Homo sapiens, UniProt P55072); test: ATPase activity assay, recombinant p97 WT; assay type: biochemical
[2] = molecular target: T2, p97 A530T (Homo sapiens, UniProt P55072, A530T); test: ATPase activity assay, recombinant p97 A530T; assay type: biochemical
[3] = molecular target: T1, p97 WT; test: TR-FRET binding assay
[4] = molecular target: T2, p97 A530T; test: TR-FRET binding assay; details: for increase in apparent Kd for A530T: A530T versus WT
[5] = test system: HCT116 873-R and 873-S cells; test: Cell viability; assay type: cell-based
[6] = test system: HCT116 cells engineered with p97 A530T; test: Cell viability; assay type: cell-based; details: homozygous A530T
[7] = molecular target: T3, p97 complexes in HCT116 cells (Homo sapiens, UniProt P55072); test: Immunoblot of p97 immunoprecipitated from inhibitor-treated cells; assay type: cell-based; details: for increase in UFD1/NPL4 binding to p97 relative to control: inhibitor concentrations causing similar CHOP and ATF4 induction
Target sequence in this assay (P55072 2-806 limits assumed, one chain of several): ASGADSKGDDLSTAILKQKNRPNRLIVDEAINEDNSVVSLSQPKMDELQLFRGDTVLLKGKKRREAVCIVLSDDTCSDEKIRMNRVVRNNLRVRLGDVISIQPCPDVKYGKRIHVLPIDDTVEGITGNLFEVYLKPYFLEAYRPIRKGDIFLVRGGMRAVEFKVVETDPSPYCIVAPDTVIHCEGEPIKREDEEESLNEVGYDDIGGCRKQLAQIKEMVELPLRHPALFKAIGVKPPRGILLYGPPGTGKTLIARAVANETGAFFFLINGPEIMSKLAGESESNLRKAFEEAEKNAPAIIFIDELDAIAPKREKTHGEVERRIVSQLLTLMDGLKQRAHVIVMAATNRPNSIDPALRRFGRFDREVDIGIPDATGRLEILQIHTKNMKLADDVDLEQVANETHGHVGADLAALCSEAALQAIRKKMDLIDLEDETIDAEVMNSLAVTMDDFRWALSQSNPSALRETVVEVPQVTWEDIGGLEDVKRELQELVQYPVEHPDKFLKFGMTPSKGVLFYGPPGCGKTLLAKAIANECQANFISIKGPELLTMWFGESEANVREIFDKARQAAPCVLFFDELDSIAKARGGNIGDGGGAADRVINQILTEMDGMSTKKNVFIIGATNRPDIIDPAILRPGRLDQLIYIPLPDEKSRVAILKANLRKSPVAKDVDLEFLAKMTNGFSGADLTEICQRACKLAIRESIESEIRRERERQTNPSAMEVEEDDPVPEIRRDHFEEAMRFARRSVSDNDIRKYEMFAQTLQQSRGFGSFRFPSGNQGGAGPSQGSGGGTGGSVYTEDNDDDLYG

[8] = molecular target: T3, p97 complexes in HCT116 cells; test: LC-MS/MS analysis of p97 complexes purified from inhibitor-treated cells; assay type: cell-based; details: HCT116, 5 µM NMS-873, 6 hours, LC-MS/MS spectrum count
Target sequence in this assay (P55072 whole entry, one chain of several): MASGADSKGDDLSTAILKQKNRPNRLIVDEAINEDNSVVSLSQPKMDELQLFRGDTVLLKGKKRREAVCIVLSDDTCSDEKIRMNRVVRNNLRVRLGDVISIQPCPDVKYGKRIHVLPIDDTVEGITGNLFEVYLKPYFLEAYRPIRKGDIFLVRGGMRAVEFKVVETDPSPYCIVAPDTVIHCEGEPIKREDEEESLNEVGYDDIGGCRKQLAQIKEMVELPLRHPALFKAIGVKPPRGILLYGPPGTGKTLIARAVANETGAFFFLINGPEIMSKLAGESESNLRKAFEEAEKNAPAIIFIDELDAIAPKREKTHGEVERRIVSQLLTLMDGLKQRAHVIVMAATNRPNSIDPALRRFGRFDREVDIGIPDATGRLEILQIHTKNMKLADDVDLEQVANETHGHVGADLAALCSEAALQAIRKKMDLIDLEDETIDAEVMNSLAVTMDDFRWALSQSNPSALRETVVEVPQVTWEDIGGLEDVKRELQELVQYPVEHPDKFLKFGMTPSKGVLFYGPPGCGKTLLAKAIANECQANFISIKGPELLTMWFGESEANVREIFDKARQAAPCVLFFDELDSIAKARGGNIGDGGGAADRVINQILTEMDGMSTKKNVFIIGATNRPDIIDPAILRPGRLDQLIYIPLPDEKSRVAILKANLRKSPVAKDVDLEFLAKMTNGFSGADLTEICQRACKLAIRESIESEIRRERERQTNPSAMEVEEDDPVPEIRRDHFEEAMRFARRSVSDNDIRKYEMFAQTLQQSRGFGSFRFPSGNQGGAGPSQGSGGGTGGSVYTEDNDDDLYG

[9] = test system: CHOP, ATF4 and polyubiquitin in HCT116 cells; test: Immunoblot of biomarkers of p97 inhibition; assay type: cell-based; details: 6 hours
[10] = HCT116, 1 hour, concentration dependent, immunoblot
[11] = HCT116, after washout of 5 µM NMS-873 (120 minutes)

T1 sequence (P55072 whole entry): as the sequence (P55072 whole entry, one chain of several) above
T2 sequence (P55072 whole entry A530T): as the sequence (P55072 whole entry, one chain of several) above, with A530T counted along it

Molecule: Cc1cc2c(C(N)=O)cccc2n1-c1nc2c(c(NCc3ccccc3)n1)COCC2 [CB-5083]
sensitivity of 873-R compared with 873-S cells [5]: similarly sensitive
sensitivity of engineered A530T cells [6]: remained sensitive

Molecule: c1ccc(CNc2nc(NCc3ccccc3)c3ccccc3n2)cc1 [DBeQ]
increase in UFD1/NPL4 binding to p97 relative to control ([7]; HCT116, 1 hour): up to 2.1 fold
sensitivity of 873-R compared with 873-S cells [5]: similarly sensitive

Molecule: O[C@@H](CS)[C@@H](O)CS [DTT]
sensitivity of 873-R compared with 873-S cells [5]: similarly sensitive

Molecule: Cc1cc(OCc2nnc(SC3CCCC3)n2-c2cccnc2)ccc1-c1ccc(S(C)(=O)=O)cc1 [NMS-873]
increase in ubiquitin bound to p97 [8]: 15 fold
increase in UFD1 and NPL4 bound to p97 [7, 10]: 12- to 15 fold
increase in p47 bound to p97 [7, 10]: 2.5 fold
t1/2 of decrease of NPL4 binding to p97 during recovery [7, 11]: 17 min
t1/2 of decrease of UFD1 binding to p97 during recovery [7, 11]: 13 min
induction of CHOP, ATF4 and polyubiquitin in 873-R compared with 873-S cells ([9]; NMS-873 2 and 5 µM, CB-5083 0.3 and 2.5 µM): diminished responses
induction of CHOP, ATF4 and polyubiquitin in engineered A530T cells ([9]; HDR cells homozygous for A530T): diminished induction

Molecule: CC(C)C[C@H](NC(=O)[C@H](Cc1ccccc1)NC(=O)c1cnccn1)B(O)O [bortezomib]
sensitivity of 873-R compared with 873-S cells [5]: similarly sensitive

Molecule: C[C@H]1CCC/C=C/[C@@H]2C[C@H](O)C[C@H]2[C@H](O)/C=C/C(=O)O1 [brefeldin A]
sensitivity of 873-R compared with 873-S cells [5]: similarly sensitive

Molecule: CC(C)C[C@H](NC(=O)[C@H](CCc1ccccc1)NC(=O)CN1CCOCC1)C(=O)N[C@@H](Cc1ccccc1)C(=O)N[C@@H](CC(C)C)C(=O)[C@@]1(C)CO1 [carfilzomib]
sensitivity of 873-R compared with 873-S cells [5]: similarly sensitive

Molecule: tunicamycin
sensitivity of 873-R compared with 873-S cells [5]: similarly sensitive

B1: p47: recombinant p97 cofactor protein with N-terminal hexahistidine tag (protein)
chain: MAAERQEALREFVAVTGAEEDRARFFLESAGWDLQIALASFYEDGGDEDIVTISQATPSSVSRGTAPSDNRVTSFRDLIHDQDEDEEEEEGQRFYAGGSERSGQQIVGPPRKKSPNELVDDLFKGAKEHGAVAVERVTKSPGETSKPRPFAGGGYRLGAAPEEESAYVAGEKRQHSSQDVHVVLKLWKSGFSLDNGELRSYQDPSNAQFLESIRRGEVPAELRRLAHGGQVNLDMEDHRDEDFVKPKGAFKAFTGEGQKLGSTAPQVLSTSSPAQQAENEAKASSSILIDESEPTTNIQIRLADGGRLVQKFNHSHRISDIRLFIVDARPAMAATSFILMTTFPNKELADESQTLKEANLLNAVIVQRLT
modifications: left off: His6, N-terminal, state not stated
cofactor concentration of maximum inhibition of ATPase activity ([1]; WT p97, biphasic response, recovery at 200 nM): 3.1 nM

Further lines, with some results ahead:

fold less sensitive to ADP than ATP-γ-S ([1]; WT ATPase activity): 18 fold
IC50 ([1]; read-out: IC50 ATPase activity, WT p97): 4500 nM
fold less sensitive to ADP than ATP-γ-S ([2]; A530T ATPase activity): 3.7 fold
IC50 ([2]; read-out: IC50 ATPase activity, A530T p97): 24600 nM
Kd ([3]; read-out: apparent Kd, WT p97, TR-FRET, non-linear regression): 600 nM
increase in apparent Kd for A530T [4]: 5- to 6 fold
Kd ([4]; read-out: apparent Kd, A530T p97, TR-FRET): 3800 nM
Molecule: Nc1ncnc2c1ncn2[C@@H]1O[C@H](COP(=O)(O)OP(=O)(O)O)[C@@H](O)[C@H]1O [ADP]

IC50 [1]: 247 nM
IC50 [2]: 6600 nM
Kd [3]: 25 nM
Kd [4]: 140 nM
increase in apparent Kd for A530T [4]: 5- to 6 fold
Molecule: Nc1ncnc2c1ncn2[C@@H]1O[C@H](CO[P@](=O)(O)O[P@](=O)(O)O[P@@](=O)(O)S)[C@@H](O)[C@H]1O [ATP-γ-S]

increase in UFD1/NPL4 binding to p97 relative to control ([7]; HCT116, 1 hour): up to 2.1 fold
Molecule: CC1(C)C(N(O)C(=O)Nc2ccc(Cl)cc2)N(c2ccc(Cl)cc2)C(=O)N1CC(=O)N/N=C/C=C/c1ccc([N+](=O)[O-])o1 (stereo not drawn) [EerI, Eeyarestatin I]
sensitivity of 873-R compared with 873-S cells [5]: similarly sensitive

increase in UFD1/NPL4 binding to p97 relative to control ([7]; HCT116, 1 hour): up to 2.1 fold
Molecule: NMS-859
sensitivity of 873-R compared with 873-S cells [5]: similarly sensitive

— article PMC4841942 (Cell chemical biology, 2016)
